Measurements from patent US8957022B2, “Multimeric tie 2 agonists and uses thereof in stimulating angiogenesis” (Sunnybrook Health Sciences Centre, priority 2006, dated 2015).

Tests used:
HUVEC [1] = assay: Modified Boyden chamber migration assay; format: cell-based, human; details: for Chemotactic cell migration versus no treatment: 4 hours, clustered Vasculotide 2 nM and 10 nM
Method: To test if Vasculotide, like Ang 1, was capable of promoting these processes, the effect of Vasculotide on EC migration was tested using a modified Boyden chamber assay. HUVEC were seeded at a density of 8.4×10^4 cells in 500 μl of F12 growth media plus 0.1% FBS in the upper chamber of an 8 μm pore size modified Boyden chamber (Falcon). 500 μl of F12 media plus 0.1% FBS plus various growth factors (Ang 1 (R& D Systems), unclustered or clustered Vasculotide, VEGF (R&D Systems) or clustered Vasculotide in combination with VEGF) or controls were placed in the bottom chamber. Cells were allowed to migrate for 4 hours in a 37° C., 5% CO2 incubator. Nonmigrating cells were scraped off, and filters were fixed in 100% methanol for 5 minutes, stained with Harris' Hematoxylin (BDH) for 10 minutes and washed twice with tap water for 3 minutes each. Filters were then mounted using Aquapolymount mounting medium. Cells that had migrated more than 50% of the way through the pore were scored as positive for migration.
Student's t test was used to test the statistical significance with a 95% confidence interval. Stimulations were performed in triplicate and migrating cells in 6 microscopic fields per replicate were counted.

HUVEC [2] = assay: Serum withdrawal-induced cell death, Cell Death ELISA; format: cell-based, human; details: F12 plus 0.1% FBS, 16 hours; clustered Vasculotide at 500 pM (p=0.002) vs non-treated cells
Method: Based on the fact that clustered Vasculotide strongly activates the anti apoptotic protein AKT (see Example 3), the ability of Vasculotide to protect ECs from serum withdrawal-induced death was examined. To do so, HUVEC were maintained in F12 media plus 0.1% FBS for 16 hours in the presence of various concentrations of unclustered or clustered Vasculotide, followed by analysis of cell apoptosis via cell death ELISA. Analysis of apoptosis was performed using Cell Death ELISA Plus (Roche) according to manufacturers' specifications. The results are shown in FIG. 2A, in which values were normalized to basal levels of cell death for HUVECs maintained in full 10% FBS, growth factor supplemented F12 media. The results shown represent the mean of three replicates plus or minus 1 SD. Student's T-test was used for statistical analysis with P value indicated.

CD1 mice [3] = assay: Matrigel plug angiogenesis assay; format: in vivo, mouse; details: for Vessel growth in plugs (confocal analysis): FITC lectin
Method: To further examine the in vivo angiogenic potential of Vasculotide, a Matrigel assay was performed. More specifically, growth factor reduced Matrigel (BD Biosciences) was impregnated with either clustered Vasculotide or one of several different control factors. These Matrigel samples were injected subcutaneously into the flank region of 3 month old CD1 mice. 14 days post implantation and immediately prior to sacrifice, FITC lectin (100 μg) was injected IV and allowed to circulate for 10 minutes, to facilitate vessel identification and quantification. Plugs were surgically resected and fixed in 4% paraformaldehyde (PFA) for 16 h. Images of vascular topology were taken using a Zeiss dissecting microscope at 4× magnification. Upon fixing, all plugs were whole mount stained with anti-Sma1-Cy3. Plugs were analyzed on a Zeiss Axiovert 100 M confocal microscope (Carl Zeiss) for three dimensional image reconstruction and photos were processed using LSM Image Browser and Adobe Photoshop 7.0. Morphometric quantification of vessel characteristics was performed by skeletonizing confocal image projections with Image Processing Tool Kit 5.0 (IPTK 5.0). Student's t test was used to test the statistical significance with a 95% confidence interval. All experiments were performed with three replicates each, with at least 5 random image stacks.
To more fully address and assign quantitative vessel parameters to the different treatment groups, the plugs were fixed and interrogated with laser confocal microscopy analysis combined with post processing image analysis (Image Processing Tool Kit 5.0, Reindeer Graphics, N.C.). Vessel parameters, including length, number and branch points (nodes) were quantified on at least six representative fields. Statistical analysis was performed by way of unpaired Student's t test. Bar graphs of the number of vessels, vessel length and number of nodes, for each treatment group, are shown in FIGS. 3A, 3B and 3C, respectively. It is noted that poor perfusion of FITC-lecithin into mice harboring 20 nM clustered Vasculotide plus VEGF plugs prevented statistical analysis, therefore bars are the mean of two separate fields. All other bars shown represent mean+/−SD.
Ang 1 has been reported to potentiate the recruitment of myogenic support cells (Suri, C. et al. (1996) Cell 87:1171-1180) and inhibit VEGF induced vascular permeability through mechanisms that are not well understood (Thurston, G. et al. (2000) Nat. Med. 6:460-463). To determine if Vasculotide, like Ang 1, was capable of initiating pericyte recruitment, whole mount immunofluorescence was performed against smooth muscle actin 1 (Sma1). […] Sma 1 staining was tightly associated with the exterior of the vessels and was enriched on larger vessels.

Tie 2 = Tie 2 (Homo sapiens, UniProt Q02763); assay: In vitro pull down assay of Tie 2 from EaHy926 cell lysate; format: binding; design: a cell lysate of EaHy926 endothelial cells (which express high levels of Tie 2) was prepared; endogenous in cells; host or cells: EaHy926 endothelial cells
Sequence of Tie 2 (Q02763 23-1124): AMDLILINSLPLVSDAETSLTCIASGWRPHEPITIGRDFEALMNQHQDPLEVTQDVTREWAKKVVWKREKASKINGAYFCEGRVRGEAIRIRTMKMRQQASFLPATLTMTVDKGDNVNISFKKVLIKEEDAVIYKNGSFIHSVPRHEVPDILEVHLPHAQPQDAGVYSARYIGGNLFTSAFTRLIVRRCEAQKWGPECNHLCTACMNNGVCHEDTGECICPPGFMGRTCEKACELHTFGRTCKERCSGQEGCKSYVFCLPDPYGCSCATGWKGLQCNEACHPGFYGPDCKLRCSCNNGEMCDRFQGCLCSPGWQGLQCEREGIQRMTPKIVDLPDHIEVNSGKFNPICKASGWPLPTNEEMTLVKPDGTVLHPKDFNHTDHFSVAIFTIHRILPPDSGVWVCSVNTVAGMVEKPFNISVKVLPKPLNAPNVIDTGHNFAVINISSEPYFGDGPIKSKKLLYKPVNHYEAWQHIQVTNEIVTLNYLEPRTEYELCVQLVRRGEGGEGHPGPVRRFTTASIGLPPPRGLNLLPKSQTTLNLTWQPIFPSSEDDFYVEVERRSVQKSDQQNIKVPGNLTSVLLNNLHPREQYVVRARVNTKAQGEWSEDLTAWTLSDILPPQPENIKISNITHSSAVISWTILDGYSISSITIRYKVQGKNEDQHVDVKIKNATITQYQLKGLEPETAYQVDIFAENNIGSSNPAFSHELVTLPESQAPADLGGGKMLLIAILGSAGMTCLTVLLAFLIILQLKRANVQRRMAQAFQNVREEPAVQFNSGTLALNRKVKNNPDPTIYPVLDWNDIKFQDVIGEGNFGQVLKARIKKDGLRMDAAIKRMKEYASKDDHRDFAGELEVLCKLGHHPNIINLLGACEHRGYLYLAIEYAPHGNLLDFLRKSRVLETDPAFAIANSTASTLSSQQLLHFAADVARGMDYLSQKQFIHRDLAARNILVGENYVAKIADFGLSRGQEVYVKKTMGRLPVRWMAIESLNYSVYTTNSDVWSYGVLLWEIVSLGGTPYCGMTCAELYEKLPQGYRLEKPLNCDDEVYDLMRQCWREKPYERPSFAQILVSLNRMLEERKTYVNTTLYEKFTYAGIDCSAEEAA
Method: In this example, the ability of Vasculotide to bind the Tie 2 receptor, despite the engineered modifications, was tested using an in vitro pull down assay. In the pull down assay, a cell lysate of EaHy926 endothelial cells (which express high levels of Tie 2) was prepared in Phospho Lipase Cγ lysis buffer (50 mM Hepes buffer pH 7.5, 150 mM NaCl, 10% glycerol, 1% Triton X-100, 1.5 mM MgCl2, 1.0 mM EGTA, 10 mM NaPPi, […], 2 mM Na3VO4, 1× aprotinin, 1× leupeptin and 1×PMSF). The whole cell lysate was mixed with either unclustered biotinylated Vasculotide or biotinylated irrelevant peptide. The biotinylated peptides then were isolated with avidin agarose and subsequently tested for their ability to precipitate Tie 2 via standard immunoblot analysis using anti-Tie 2 antibody.

CD1 mice [4] = format: in vivo; details: 50 μg intravenously, peripheral blood 24 hours post injection
Method: In this example, the effect of systemically administered Vasculotide on circulating endothelial cells was examined. Three month old CD1 mice were injected intravenously with either PBS (vehicle) or 50 μg of clustered Vasculotide. Twenty four hours post injection, peripheral blood was collected on heparin via cardiac puncture and nonhematopoietic circulating endothelial cells (CECs) were sorted using a four channel FACS approach. CECs were defined as CD13^+/VEGFR-2^+/CD45^−, Viable (propidium iodide). Cell numbers reported are number of viable cells/μl of peripheral blood. Total white blood cell count was also determined using a hemocytometer.

[5] = system: Cos 1 fibroblast cells and C166 EC's (phenotypically null for Tie 2); assay: MAPK and AKT phosphorylation in Ad-EGFP infected cells null for Tie 2; format: cell-based; details: EGFP infected Cos 1 and C166 cells
Method: To more formally address the specificity of clustered Vasculotide for the Tie 2 receptor, reconstitution experiments were performed in Cos 1 fibroblast cells and C166 EC's, both of which are phenotypically null for Tie 2. Cos 1 and C166 cells (ATCC) were maintained on 10-cm-diameter plates (Nunc) in Dulbecco's modified Eagle's medium (DMEM) supplemented with 10% (FBS), 1× penicillin, 1× streptomycin, and 200 mM L-glutamine (all Gibco BRL) in a 5% CO2 incubator at 37° C. Cos1 or C166 cells were infected (MOI 30) overnight with adenoviruses encoding one of either enhanced green fluorescent protein (EGFP) or Tie 2. Infection efficiency was confirmed by epifluorescence (EGFP), or by immunoblot (Tie 2).
Cells infected with recombinant adenovirus encoding EGFP or Tie 2 were either left unstimulated or stimulated with Vasculotide, clustered Vasculotide or avidin for 16 hours, after which MTS reagent was applied to all samples for 4 hours. Absorbance at 492 was measured using a multiwell plate reader (Power Wave X340, Biotek Instruments Inc). To broadly examine the potential that clustered Vasculotide was activating Tie 2-independent downstream signalling pathways, the activation of MAPK and AKT in the EGFP infected cells was examined. […] This fact precluded us from stimulating these cells any further with Vasculotide or clustered Vasculotide.

| Substance | Chemotactic cell migration versus no treatment (HUVEC [1]) | Apoptosis / survival after serum withdrawal (HUVEC [2]) | Vessel growth in plugs (confocal analysis) (CD1 mice [3]; 14 days post implantation) | Precipitation of Tie 2 (avidin agarose pull down, anti-Tie 2 immunoblot) (Tie 2; EaHy926 whole cell lysate, unclustered biotinylated peptide) | Number of circulating endothelial cells (CD1 mice [4]) | Phosphorylation of MAPK or AKT above non-stimulated samples [5] | Migration compared with VEGF or Ang 1 (HUVEC [1]; VEGF 100 ng/ml, Ang 1 500 ng/ml (FIG. 2B legend)) | Nature of vessels (arborization, tortuosity) (CD1 mice [3]; 14 days post implantation) | Angiogenic response in the membranous capsule surrounding the plugs (CD1 mice [3]; 14 days post implantation, subcutaneous) | Smooth muscle actin 1 (Sma1) staining, pericyte recruitment (CD1 mice [3]; whole mount immunofluorescence) | Competition for available Tie 2 in the pull down (Tie 2; ten fold excess, preclustered with soluble avidin) |
| --- | --- | --- | --- | --- | --- | --- | --- | --- | --- | --- | --- |
| Vasculotide: biotinylated T7 peptide-PEG: Cys-His-His-His-Arg-His-Ser-Phe (SEQ ID NO: 2) conjugated to EZ-link-PEO-maleimide-biotin | did not promote migration above that seen in the untreated sample | no effect on survival | no significant vessel growth | able to precipitate Tie 2 | decrease in the number of circulating endothelial cells | Neither Vasculotide nor clustered Vasculotide significantly induced phosphorylation of MAPK or AKT |  |  |  |  |  |
| clustered Vasculotide: Vasculotide clustered with avidin in a 4:1 ratio, an obligate tetrameric compound | significant increases in chemotactic cell migration | statistically significant decrease in apoptosis | robust induction of angiogenesis |  |  | Neither Vasculotide nor clustered Vasculotide significantly induced phosphorylation of MAPK or AKT | not significantly different than that seen in samples treated with VEGF or Ang 1 | clear, large, well arborized vessels | distinct and robust angiogenic response | significant increase in overall Sma 1 staining | able to abolish this interaction |
